# Measured values published in ChEMBL document CHEMBL5678816, “A Next-Generation TRK Kinase Inhibitor Overcomes Acquired Resistance to Prior TRK Kinase Inhibition in Patients with TRK Fusion-Positive Solid Tumors” (Cancer Discov, 2017).
# Calls of active or inactive are those of the source. The calls are words filed in the database; no cut-off is given here.
# Key:
# [1] = target: Ribosomal protein S6 kinase alpha-5 (Homo sapiens) (UniProt O75582); test: Inhibition of MSK1 (unknown origin) at 1 uM in presence of ATP relative to control; values are per cent of control
# NIH3T3 = test: In vivo inhibition of […] in nu/nu NCr mouse implanted with mouse NIH3T3 cells harboring extracellular domain deleted […] assessed as reduction in […] phosphorylation at 10 to 100 mg/kg, po administered twice daily for 3 days and measured after 2 hrs post last dose by ELISA; format: functional, organism-based; settings: dose 10-100 mg/kg, time 3.0 day
# [2] = target: Tyrosine-protein kinase Mer (Homo sapiens) (UniProt Q12866); test: Inhibition of Mer (unknown origin) at 1 uM in presence of ATP relative to control; values are per cent of control
# [3] = target: Activated CDC42 kinase 1 (Homo sapiens) (UniProt Q07912); test: Inhibition of TNK2 (unknown origin) at 1 uM in presence of ATP relative to control; values are per cent of control
# [4] = target: Calcium/calmodulin-dependent protein kinase type II subunit gamma (Homo sapiens) (UniProt Q13555); test: Inhibition of CAMK2g (unknown origin) at 1 uM in presence of ATP relative to control; values are per cent of control
# Chain of Calcium/calmodulin-dependent protein kinase type II subunit gamma (Homo sapiens) (Q13555 whole entry): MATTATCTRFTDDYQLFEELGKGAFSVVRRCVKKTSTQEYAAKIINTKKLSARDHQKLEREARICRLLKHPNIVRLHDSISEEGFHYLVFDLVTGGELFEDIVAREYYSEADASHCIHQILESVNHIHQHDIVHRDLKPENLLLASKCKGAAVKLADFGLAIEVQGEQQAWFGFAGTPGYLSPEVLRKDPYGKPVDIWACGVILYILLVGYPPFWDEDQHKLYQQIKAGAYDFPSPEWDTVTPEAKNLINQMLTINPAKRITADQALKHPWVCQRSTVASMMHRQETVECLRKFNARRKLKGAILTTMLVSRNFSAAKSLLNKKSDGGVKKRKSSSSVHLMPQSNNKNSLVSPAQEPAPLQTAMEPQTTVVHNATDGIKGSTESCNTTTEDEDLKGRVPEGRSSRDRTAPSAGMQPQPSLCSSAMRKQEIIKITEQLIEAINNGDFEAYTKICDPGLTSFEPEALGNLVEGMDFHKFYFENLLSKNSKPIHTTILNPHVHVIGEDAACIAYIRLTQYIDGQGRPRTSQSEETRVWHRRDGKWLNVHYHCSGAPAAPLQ
# [5] = target: Myotonin-protein kinase (Homo sapiens) (UniProt Q09013); test: Inhibition of DMPK (unknown origin) at 1 uM in presence of ATP relative to control; values are per cent of control
# Chain of Myotonin-protein kinase (Homo sapiens) (Q09013 whole entry, the tested form may be a part): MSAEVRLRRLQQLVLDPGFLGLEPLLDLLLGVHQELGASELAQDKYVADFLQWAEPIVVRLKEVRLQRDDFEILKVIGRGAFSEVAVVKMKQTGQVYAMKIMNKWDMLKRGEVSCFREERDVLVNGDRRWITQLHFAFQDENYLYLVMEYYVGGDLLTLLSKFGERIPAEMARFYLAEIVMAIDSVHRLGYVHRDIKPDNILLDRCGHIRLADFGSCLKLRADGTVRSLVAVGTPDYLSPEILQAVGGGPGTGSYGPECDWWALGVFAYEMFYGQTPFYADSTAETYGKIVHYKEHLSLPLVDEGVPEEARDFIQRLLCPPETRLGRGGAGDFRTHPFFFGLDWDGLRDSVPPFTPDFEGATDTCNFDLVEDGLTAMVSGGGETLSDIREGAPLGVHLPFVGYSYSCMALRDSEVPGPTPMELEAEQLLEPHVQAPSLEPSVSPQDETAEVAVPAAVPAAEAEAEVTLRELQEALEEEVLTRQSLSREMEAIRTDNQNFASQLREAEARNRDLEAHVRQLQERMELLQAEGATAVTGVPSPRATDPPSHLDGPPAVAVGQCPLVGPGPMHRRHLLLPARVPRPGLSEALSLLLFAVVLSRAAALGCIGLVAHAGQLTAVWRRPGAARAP
# [6] = Toxicity in nu/nu NCr mouse implanted with mouse NIH3T3 cells harboring extracellular domain deleted TRKA assessed as body weight loss at 30 to 300 mg/kg, po administered twice daily for 10 days relative to control; format: organism-based; settings: in vivo, 240 h, dose 30-300 mg/kg, time 10 day
# HMCB cell line = test: Inhibition of cell proliferation in human HMCB cells upto 10 umol/L incubated for 72 hrs by DAPI staining based analysis; format: functional; settings: dose <= 10.0 µmol/L
# [7] = target: Serine/threonine-protein kinase TAO1 (Homo sapiens) (UniProt Q7L7X3); test: Inhibition of TAO1 (unknown origin) at 1 uM in presence of ATP relative to control; values are per cent of control
# [8] = target: Rho-associated protein kinase 1 (Homo sapiens) (UniProt Q13464); test: Inhibition of ROCK-I (unknown origin) at 1 uM in presence of ATP relative to control; values are per cent of control
# [9] = target: Serine/threonine-protein kinase MRCK alpha (Homo sapiens) (UniProt Q5VT25); test: Inhibition of MRCKalpha (unknown origin) at 1 uM in presence of ATP relative to control; values are per cent of control
# TF-1 = test: Inhibition of cell proliferation in human TF-1 cells upto 10 umol/L incubated for 72 hrs by DAPI staining based analysis; format: functional; settings: dose <= 10.0 µmol/L
# [10] = target: Serine/threonine-protein kinase Chk1 (Homo sapiens) (UniProt O14757); test: Inhibition of CHK1 (unknown origin) at 1 uM in presence of ATP relative to control; values are per cent of control
# Chain of Serine/threonine-protein kinase Chk1 (Homo sapiens) (O14757 whole entry, canonical isoform): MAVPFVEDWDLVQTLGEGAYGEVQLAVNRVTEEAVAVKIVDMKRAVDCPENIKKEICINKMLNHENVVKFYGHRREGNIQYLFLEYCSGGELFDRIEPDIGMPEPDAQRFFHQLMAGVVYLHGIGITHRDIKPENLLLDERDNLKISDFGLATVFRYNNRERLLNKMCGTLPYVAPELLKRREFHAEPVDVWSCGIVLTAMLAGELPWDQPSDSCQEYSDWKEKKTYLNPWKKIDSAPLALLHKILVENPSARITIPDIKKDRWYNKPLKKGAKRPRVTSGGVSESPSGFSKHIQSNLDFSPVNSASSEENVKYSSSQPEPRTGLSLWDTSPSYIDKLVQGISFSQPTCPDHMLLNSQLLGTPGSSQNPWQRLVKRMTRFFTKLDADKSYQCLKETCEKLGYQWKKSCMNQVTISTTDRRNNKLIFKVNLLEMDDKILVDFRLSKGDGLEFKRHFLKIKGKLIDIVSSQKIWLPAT
# [11] = target: Casein kinase I isoform gamma-3 (Homo sapiens) (UniProt Q9Y6M4); test: Inhibition of CK1gamma3 (unknown origin) at 1 uM in presence of ATP relative to control; values are per cent of control
# [12] = target: Glycogen synthase kinase-3 alpha (Homo sapiens) (UniProt P49840); test: Inhibition of GSK3alpha (unknown origin) at 1 uM in presence of ATP relative to control; values are per cent of control
# Chain of Glycogen synthase kinase-3 alpha (Homo sapiens) (P49840 2-483 limits assumed): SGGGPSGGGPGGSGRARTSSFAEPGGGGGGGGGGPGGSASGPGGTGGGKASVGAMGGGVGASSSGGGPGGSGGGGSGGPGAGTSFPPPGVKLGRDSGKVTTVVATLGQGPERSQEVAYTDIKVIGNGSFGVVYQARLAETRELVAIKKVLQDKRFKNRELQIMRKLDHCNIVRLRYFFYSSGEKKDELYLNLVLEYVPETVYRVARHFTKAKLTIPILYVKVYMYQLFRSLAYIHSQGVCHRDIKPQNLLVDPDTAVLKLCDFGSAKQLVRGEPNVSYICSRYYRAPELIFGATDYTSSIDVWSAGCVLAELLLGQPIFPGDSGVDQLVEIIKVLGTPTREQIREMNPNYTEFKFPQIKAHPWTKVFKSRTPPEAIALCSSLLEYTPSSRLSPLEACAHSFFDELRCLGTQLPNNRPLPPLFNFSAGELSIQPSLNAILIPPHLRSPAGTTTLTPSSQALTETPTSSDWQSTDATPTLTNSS
# [13] = Cmax in pediatric patient with recurrent ETV6-NTRK3-rearranged infantile fibrosarcoma at 60 mg administered twice a day as liquid formulation for 8 day by LC-MS/MS analysis; format: ADME; settings: human, in vivo
# MDA-MB-453 = test: Inhibition of cell proliferation in human MDA-MB-453 cells upto 10 umol/L incubated for 72 hrs by DAPI staining based analysis; format: functional; settings: dose <= 10.0 µmol/L
# Hs-578T = test: Inhibition of cell proliferation in human Hs-578T cells upto 10 umol/L incubated for 72 hrs by DAPI staining based analysis; format: functional; settings: dose <= 10.0 µmol/L
# [14] = target: Ribosomal protein S6 kinase alpha-6 (Homo sapiens) (UniProt Q9UK32); test: Inhibition of Rsk4 (unknown origin) at 1 uM in presence of ATP relative to control; values are per cent of control
# Chain of Ribosomal protein S6 kinase alpha-6 (Homo sapiens) (Q9UK32 whole entry): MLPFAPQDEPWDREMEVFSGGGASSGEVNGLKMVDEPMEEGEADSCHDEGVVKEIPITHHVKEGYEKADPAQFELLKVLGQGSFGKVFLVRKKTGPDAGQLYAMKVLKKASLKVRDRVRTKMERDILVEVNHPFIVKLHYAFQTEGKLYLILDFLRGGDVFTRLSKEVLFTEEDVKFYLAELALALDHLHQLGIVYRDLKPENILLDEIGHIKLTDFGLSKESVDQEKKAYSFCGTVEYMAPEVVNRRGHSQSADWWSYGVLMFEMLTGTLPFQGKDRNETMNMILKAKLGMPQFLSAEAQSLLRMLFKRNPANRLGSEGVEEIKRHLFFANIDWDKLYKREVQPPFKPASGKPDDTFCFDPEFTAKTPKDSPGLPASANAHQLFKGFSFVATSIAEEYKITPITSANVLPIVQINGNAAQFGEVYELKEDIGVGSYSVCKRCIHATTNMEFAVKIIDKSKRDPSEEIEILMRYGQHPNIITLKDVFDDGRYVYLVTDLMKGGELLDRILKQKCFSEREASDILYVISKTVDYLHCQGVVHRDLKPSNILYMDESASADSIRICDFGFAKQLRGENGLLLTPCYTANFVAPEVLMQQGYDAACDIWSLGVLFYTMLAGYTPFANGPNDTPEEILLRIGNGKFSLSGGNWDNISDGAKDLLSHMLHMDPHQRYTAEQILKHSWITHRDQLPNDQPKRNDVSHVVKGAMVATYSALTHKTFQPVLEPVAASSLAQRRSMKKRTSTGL
# L-428 = test: Inhibition of cell proliferation in human L428 cells upto 10 umol/L incubated for 72 hrs by DAPI staining based analysis; format: functional; settings: dose <= 10.0 µmol/L
# [15] = target: Serine/threonine-protein kinase BRSK1 (Homo sapiens) (UniProt Q8TDC3); test: Inhibition of BrSK1 (unknown origin) at 1 uM in presence of ATP relative to control; values are per cent of control
# [16] = target: Serine/threonine-protein kinase PLK2 (Homo sapiens) (UniProt Q9NYY3); test: Inhibition of Plk2 (unknown origin) at 1 uM in presence of ATP relative to control; values are per cent of control
# [17] = target: Mitogen-activated protein kinase 8 (Homo sapiens) (UniProt P45983); test: Inhibition of JNK1alpha1 (unknown origin) at 1 uM in presence of ATP relative to control; values are per cent of control
# Chain of Mitogen-activated protein kinase 8 (Homo sapiens) (P45983 whole entry): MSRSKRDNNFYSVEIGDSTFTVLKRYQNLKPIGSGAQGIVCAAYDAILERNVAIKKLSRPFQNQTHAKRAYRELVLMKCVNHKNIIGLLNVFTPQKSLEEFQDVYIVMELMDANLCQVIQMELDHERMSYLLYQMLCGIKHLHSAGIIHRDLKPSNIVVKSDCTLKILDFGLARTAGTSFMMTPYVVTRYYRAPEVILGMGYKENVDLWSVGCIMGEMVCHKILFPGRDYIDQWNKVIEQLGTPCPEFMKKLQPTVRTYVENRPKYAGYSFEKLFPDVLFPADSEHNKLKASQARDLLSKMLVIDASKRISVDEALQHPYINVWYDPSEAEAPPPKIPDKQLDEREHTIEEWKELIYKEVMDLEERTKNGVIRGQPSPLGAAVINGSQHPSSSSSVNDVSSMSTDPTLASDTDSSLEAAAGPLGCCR
# BXPC-3 = test: Inhibition of cell proliferation in human BXPC-3 cells upto 10 umol/L incubated for 72 hrs by DAPI staining based analysis; format: functional; settings: dose <= 10.0 µmol/L
# [18] = target: Ephrin type-B receptor 4 (Homo sapiens) (UniProt P54760); test: Inhibition of EphB4 (unknown origin) at 1 uM in presence of ATP relative to control; values are per cent of control
# Chain of Ephrin type-B receptor 4 (Homo sapiens) (P54760 whole entry): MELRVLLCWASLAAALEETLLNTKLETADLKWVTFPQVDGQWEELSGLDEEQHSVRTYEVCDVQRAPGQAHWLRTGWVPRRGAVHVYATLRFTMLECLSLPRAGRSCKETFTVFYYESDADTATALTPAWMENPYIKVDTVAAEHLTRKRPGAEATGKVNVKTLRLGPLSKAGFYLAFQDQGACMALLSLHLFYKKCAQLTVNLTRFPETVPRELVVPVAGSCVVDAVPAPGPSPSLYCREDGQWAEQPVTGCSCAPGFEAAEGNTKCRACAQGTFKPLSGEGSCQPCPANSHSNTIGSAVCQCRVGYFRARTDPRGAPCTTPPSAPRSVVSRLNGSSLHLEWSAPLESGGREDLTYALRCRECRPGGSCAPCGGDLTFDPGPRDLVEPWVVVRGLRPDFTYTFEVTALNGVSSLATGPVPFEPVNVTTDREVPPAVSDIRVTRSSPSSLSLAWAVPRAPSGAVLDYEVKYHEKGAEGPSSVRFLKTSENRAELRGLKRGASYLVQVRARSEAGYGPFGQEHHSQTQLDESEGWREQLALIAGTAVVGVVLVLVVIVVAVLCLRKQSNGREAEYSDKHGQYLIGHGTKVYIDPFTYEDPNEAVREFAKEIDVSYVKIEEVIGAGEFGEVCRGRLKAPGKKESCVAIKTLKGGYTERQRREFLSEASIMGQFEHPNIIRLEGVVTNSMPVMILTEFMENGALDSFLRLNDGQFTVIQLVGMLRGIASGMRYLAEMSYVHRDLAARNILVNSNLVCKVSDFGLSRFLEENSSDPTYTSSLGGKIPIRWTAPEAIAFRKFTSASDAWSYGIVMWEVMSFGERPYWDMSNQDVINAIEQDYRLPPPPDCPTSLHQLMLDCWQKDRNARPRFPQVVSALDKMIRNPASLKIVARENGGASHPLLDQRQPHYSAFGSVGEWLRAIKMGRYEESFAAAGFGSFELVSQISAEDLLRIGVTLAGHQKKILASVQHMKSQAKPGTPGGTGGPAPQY
# BT-549 = test: Inhibition of cell proliferation in human BT-549 cells upto 10 umol/L incubated for 72 hrs by DAPI staining based analysis; format: functional; settings: dose <= 10.0 µmol/L
# [19] = target: Protein kinase C eta type (Homo sapiens) (UniProt P24723); test: Inhibition of PKCeta (unknown origin) at 1 uM in presence of ATP relative to control; values are per cent of control
# [20] = target: RAC-gamma serine/threonine-protein kinase (Homo sapiens) (UniProt Q9Y243); test: Inhibition of AKT3 (unknown origin) at 1 uM in presence of ATP relative to control; values are per cent of control
# Chain of RAC-gamma serine/threonine-protein kinase (Homo sapiens) (Q9Y243 whole entry): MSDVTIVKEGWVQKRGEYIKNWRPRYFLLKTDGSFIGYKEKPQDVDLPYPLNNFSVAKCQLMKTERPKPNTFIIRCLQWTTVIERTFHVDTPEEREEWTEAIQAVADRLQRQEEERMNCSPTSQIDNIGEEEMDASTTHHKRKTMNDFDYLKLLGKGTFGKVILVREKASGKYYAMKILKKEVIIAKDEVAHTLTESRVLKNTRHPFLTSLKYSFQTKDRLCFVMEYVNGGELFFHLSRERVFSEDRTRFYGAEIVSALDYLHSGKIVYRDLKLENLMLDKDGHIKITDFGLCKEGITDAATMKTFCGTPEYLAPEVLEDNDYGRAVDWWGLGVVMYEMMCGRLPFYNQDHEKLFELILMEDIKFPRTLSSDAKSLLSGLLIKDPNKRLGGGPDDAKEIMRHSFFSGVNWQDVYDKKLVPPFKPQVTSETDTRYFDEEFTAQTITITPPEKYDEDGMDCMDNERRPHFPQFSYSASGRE
smiles,measurement,setting,value
C[C@@H]1CCc2ncc(F)cc2[C@H]2CCCN2c2ccn3ncc(c3n2)C(=O)N1 [SELITRECTINIB],residual activity,[1],131%
same,inhibition,NIH3T3,Active
same,residual activity,[2],117%
same,residual activity,[3],10%
same,residual activity,[4],95%
same,residual activity,[5],106%
same,Activity,[6],< 5%
same,inhibition,HMCB cell line,inactive
same,residual activity,[7],102%
same,residual activity,[8],105%
same,residual activity,[9],138%
same,inhibition,TF-1,inactive
same,residual activity,[10],109%
same,residual activity,[11],113%
same,residual activity,[12],117%
same,Cmax,[13],415 ng/mL
same,inhibition,MDA-MB-453,inactive
same,inhibition,Hs-578T,inactive
same,residual activity,[14],127%
same,inhibition,L-428,inactive
same,residual activity,[15],108%
same,residual activity,[16],95%
same,residual activity,[17],106%
same,inhibition,BXPC-3,inactive
same,residual activity,[18],116%
same,inhibition,BT-549,inactive
same,residual activity,[19],108%
same,residual activity,[20],104%
